Series [1] deals with 5/6 Nx rats. Put plainly: Blood chemistries in 5/6 nephrectomy rat model of CKD (Example 1). Conditions: 14 days. Format: in vivo. The source says: Male Wistar rats weighing 250 g were purchased from the Animal Breeding Facility of the University of Cordoba (Spain). Rats were housed with a 12 hr/12 hr light/dark cycle and given ad libitum access to normal diet (calcium=0.9%, phosphorus=0.6%). The experimental protocols were reviewed and approved by the Ethics Committee for Animal Research of the Universidad de Cordoba (Spain), and all animals received humane care in compliance with the Principles of Laboratory Animal Care, formulated by the National Society for Medical Research and the Guide for the Care and Use of Laboratory Animals prepared by the National Academy of Science.
(§1) The rodent model of CKD used in these studies was induced by 5/6 nephrectomy (5/6 Nx), a two-step procedure that reduces the original functional renal mass by five-sixths (5/6). In the first step, animals were anesthetized using xylazine (5 mg/kg, ip) and ketamine (80 mg/kg, ip), a 5-8 mm incision was made on the left medio-lateral surface of the abdomen, and the left kidney was exposed. The left renal artery was visualized and 2 of the 3 branches tightly ligated, after which the kidney was inspected for infarct and returned to an anatomically neutral position within the peritoneal cavity. The abdominal wall and skin incisions were closed with suture, and the rat placed back into its home cage. After 1 week of recovery, the animal was reanesthetised and a 5-8 mm incision was made on the right medio-lateral surface of the abdomen. The right kidney was exposed and unencapsulated, the renal pedicle clamped and ligated, and the kidney was removed. The ligated pedicle was returned to a neutral anatomical position and the abdomen and skin incisions closed with suture materials. The animal was allowed to recover in its home cage. Sham-operated animals underwent the same procedures without renal manipulation.
(§2) After the second surgery, the diet was changed to one with decreased calcium (0.6%) and increased phosphorus (0.9%) content. The rats were randomized (based on the normal distribution of baseline body weights) into 6 experimental groups: sham-operated (n=13) (used as a control), 5/6 Nx+vehicle (saline) (n=10), 5/6 Nx+calcitriol 80 ng/kg (Calcijex, Abbot) ip every other day (n=10), 5/6 Nx+Compound A 1.5 mg/kg per day sc (n=10) (Amgen, Thousand Oaks, Calif. USA), 5/6 Nx+Compound A 3 mg/kg per day sc (n=10), or 5/6 Nx+combination calcitriol 80 ng/kg and Compound A 1.5 mg/kg (n=10) dosed as above. Treatments were maintained for 14 days. The rats were sacrificed by aortic puncture and exsanguination under general anesthesia (ip sodium thiopenthal) 24 hours after the last dose of drug.
Blood for chemistry analyses was collected from the abdominal aorta at the end of the treatment period. Blood for measurements of ionized calcium levels was collected in heparinized syringes and immediately analyzed using a Ciba-Corning 634 ISE Ca++/pH Analyzer (Ciba-Corning Essex, England). Afterwards, plasma was separated by centrifugation and stored at −70° C. until assayed. PTH levels were quantified according to the vendor's instructions using a rat PTH(1-34) immunoradiometric assay kit (Immunotopics, San Clemente, CA). Serum creatinine, phosphorous, and total calcium were measured by spectrophotometry (Sigma Diagnostics, St. Louis, Mo., USA).
Values were expressed as the mean±standard error (SE). The difference between means for two different groups was determined by t test; the difference between means for three or more groups was assessed by ANOVA. P<0.05 was considered significant.

The test system of series [2] is 5/6 Nx rats. Put plainly: Vascular calcification regression in 5/6 Nx rats on high phosphorus diet with calcitriol. The format is in vivo, rat. Here is the method: Animals were 5/6 Nx as previously described and placed on a high phosphorus diet (0.6% Ca; 1.2% P) for 14 days. Animals were divided into four groups (A,B,C and D n=4-5 animals per group), one group (A) received vehicle (saline 0.2 ml i.p.) while the remaining three groups (B,C and D) received calcitriol (80 ng/kg every other day i.p.) for the course of the study (28 days). On day 14 two groups (C and D) were converted to normal diet (Ca 0.9%; P 0.6%) and group C was administered Compound A at 3 mg/kg daily p.o.), while group D received vehicle (0.5 ml of 10% captisol in water p.o.) daily. The remaining groups (A and B) were kept on the high phosphorus diet and administered either calcitriol or vehicle for the course of the study (28 days). On day 28 all animals were sacrificed (CO2) and the aortas removed for determining aortic P and Ca content (mg/g of tissue) as previously described

In series [3] the test system is 5/6 Nx rats. Put plainly: Ex vivo assessment of vascular calcification: aortic calcium and phosphorus content, von Kossa staining (Example 1). To be noted: 14 days; for Mineral deposits in the aorta (von Kossa staining): single agents. Format: in vivo, rat. The method, then: as §1, §2
Following sacrifice, the abdominal aortas were dissected and divided in two parts. One part was fixated in 10% buffered formalin and subsequently sectioned and stained for mineralization by the von Kossa method. The other was dimineralized in 10% formic acid, and the arterial tissue calcium and phosphorous content measured in the supernatant according to the method described by Price et al Arterioscler Thromb Vasc Biol 20:317-27, 2000.

Series [4] relates to 5/6 Nx rats. Put plainly: Soft tissue mineralization by Von Kossa staining in 5/6 Nx rats (Example 4). The format is in vivo, rat. To be noted: 5/6 Nx rats, 14 days. The source says: Wistar rats (200-250g), fed a 0.6% Ca and 1.2% P diet, were 5/6 nephrectomized (5/6 Nx).
Series [5] deals with 5/6 Nx rats. The series is described as follows: Serum PTH, ionized Ca, P and creatinine in 5/6 Nx rats given paricalcitol and/or Compound B (Example 3). To be noted: 14 days.
For series [6], the system named is 5/6 Nx rats. Put plainly: Ca and P content of thoracic aorta in 5/6 Nx rats given paricalcitol and/or Compound B (Example 3). The format is in vivo, rat. To be noted: 14 days. The source says:
Wistar rats (200-250g), fed a 0.6% Ca and 1.2% P diet, were 5/6 nephrectomized (5/6 Nx) or sham-operated (sham).

[7] abbreviates: Compound A 1.5 mg/kg per day sc, calcitriol 80 ng/kg ip every other day, or both, mean±SE.
Setting [8] is: Compound A 3 mg/kg per day sc, mean±SE.
Where [9] appears, read: Group C: normal diet from day 14 + Compound A 3 mg/kg daily p.o. while still receiving calcitriol, vs group D, day 28.
Setting [10] is: concurrent treatment with Compound A 1.5 mg/kg and calcitriol 80 ng/kg.
Setting [11] is: calcitriol 80 ng/kg every 48 hr ip.
[12] abbreviates: Group B: high phosphorus diet + calcitriol 80 ng/kg every other day i.p. 28 days, vs Group A (vehicle).
[13] abbreviates: 5/6 Nx rats, compared to 5/6 Nx+vehicle.
[14] abbreviates: serum, 5/6Nx rats, paricalcitol 240 ng/kg every 48 hr ip, Compound B 1.5 mg/kg every 48 hr sc.
Where [15] appears, read: 5/6 Nx rats, compared to vehicle treated 5/6 Nx animals (Compound B also vs sham).
Where [16] appears, read: thoracic aorta, 5/6Nx rats, paricalcitol 240 ng/kg every 48 hr ip, Compound B 1.5 mg/kg every 48 hr sc.

Structures are written as SMILES.

With `COc1cccc([C@@H](C)NCCCc2ccccc2Cl)c1.Cl` [Compound A, N-(3-[2-chlorophenyl]-propyl)-R-α-methyl-3-methoxybenzylamine HCl], the “Serum PTH concentration” value in series [1] (Compound A 1.5 mg/kg per day sc alone or with calcitriol 80 ng/kg, mean±SE) was determined as 73.5 ± 12.8 pg/mL. In series [1] (Compound A 1.5 mg/kg per day sc included with calcitriol 80 ng/kg), the “Calcitriol mediated increase in serum creatinine levels” value is reported as “decreased”. In series [1] (setting [7]), the “Serum ionized calcium levels” value stood at 1.20 ± 0.02 mmol/L and the Serum phosphorus levels was determined as 6.6 ± 0.3 mg/dL. Moreover, in series [1] (setting [8]), the “Serum ionized calcium levels” value was 1.22 ± 0.02 mmol/L and the Serum phosphorus levels was determined as 6.9 ± 0.4 mg/dL. In series [2] (setting [9]), the Aortic calcium content result is recorded as “lower” and the Aortic phosphorus content entry was “significant (p<0.05) reduction”. Besides, the “Raised phosphorus content in the aortic tissue, in words” value in series [3] (Compound A alone 1.5 or 3 mg/kg) is reported as “did not”. Further, in series [3] (addition of Compound A 1.5 mg/kg to the calcitriol-treatment regimen), the “Development of aortic calcification (von Kossa staining)” value is given as “prevented the development of aortic calcification”. Besides, in series [3] (setting [10]), the “Calcitriol-induced increase in aortic calcium” value is on record as “significantly (P=0.002) attenuated” and the “Calcitriol-induced increase in aortic phosphorus” value is recorded as “significantly (P=0.013) attenuated”. Further, in series [3], the “Mineral deposits in the aorta (von Kossa staining)” value is recorded as “not observed”.
For the molecule `C=C1/C(=C\C=C2/CCC[C@]3(C)[C@@H]([C@H](C)CCCC(C)(C)O)CC[C@@H]23)C[C@@H](O)C[C@@H]1O` [calcitriol, reference compound], in series [4] (setting [11]), the “Mineralization in heart (Von Kossa staining)” value is recorded as “increased mineralization”, the “Mineralization in kidney (Von Kossa staining)” value is given as “increased mineralization” and the “Mineralization in lung (Von Kossa staining)” value is “increased mineralization”. In series [1] (setting [7]), the “Serum ionized calcium levels” value came out at 1.28 ± 0.02 mmol/L and the Serum phosphorus levels worked out at 10.2 ± 0.9 mg/dL. Also, the Serum creatinine levels in series [1] (calcitriol 80 ng/kg ip every other day, alone or with Compound A 1.5 mg/kg per day sc, mean±SE) stood at 1.05 ± 0.07 mg/dL. For the same molecule, in series [2] (setting [12]), the Aortic calcium content entry is reported as “significant (p<0.05) increases” and the Aortic phosphorus content result is “significant (p<0.05) increases”. Moreover, the “Phosphorus content in the aortic tissue” value in series [3] (calcitriol 80 ng/kg ip every other day) was found to be 2.1±1 mg/g tissue. In series [3] (calcitriol 80 ng/kg ip every other day, mean±SE), the Aortic calcium content turned out to be 4.2±1.1 mg/g tissue. The “Mineral deposits in the aorta (von Kossa staining)” value in series [3] is recorded as “marked von Kossa staining”.
Consider `C[C@H](/C=C/[C@H](C)C(C)(C)O)[C@H]1CC[C@H]2/C(=C/C=C3C[C@@H](O)C[C@H](O)C3)CCC[C@]12C` [Paricalcitol, paricalcitol, reference compound], for which the “Mineralization in kidney (Von Kossa staining)” value in series [4] (paricalcitol 240 ng/kg every 48 hr ip) is on record as “increased mineralization”. In series [5] (setting [13]), the “Blood ionized calcium, change in words” value is “no changes”; the “Creatinine, change in words” value is given as “no changes”; the “Serum P levels, change in words” value was “no changes”; the “Serum PTH levels, change in words” value is given as “significantly (p<0.05) decreased”. Further, the Creatinine in series [5] (5/6Nx rats, paricalcitol 240 ng/kg every 48 hr ip, Compound B 1.5 mg/kg every 48 hr sc) worked out at 2.32 ± 0.43 mg/dL. Moreover, in series [5] (setting [14]), the P was determined as 14.7 ± 2.1 mg/dL and the PTH turned out to be 250 ± 61 pg/mL. In series [6] (setting [15]), the “Aortic Ca content, change in words” value is recorded as “significantly increased” and the “Aortic P content, change in words” value is “significantly increased”. Moreover, in series [6] (setting [16]), the “Aortic Ca” value is 9.5 ± 2.2 mg/g and the “Aortic P” value amounted to 6.2 ± 2.4 mg/g.

For the origin of these results see patent publication US20060276534A1, “Methods of decreasing calcification” (Amgen Inc., priority 2005, published 2006).
